Results as given in US10485746B2, “Synergistic antibacterial effects of magnolia bark extract and L-arginine, Nα-lauroyl ethyl ester on salivary bacteria” (WM. WRIGLEY JR. COMPANY, priority 2015, dated 2019).
≈ marks a conversion by molar mass, not a printed value.

Legend:
[1] = system: S. mutans (ATCC No. 25715); test: MBC against S. mutans; assay type: cell-based; conditions: Streptococcus mutans, ATCC25715; kills at least 99.9% of initial inoculum
Description: (§1) Another method for evaluating the efficacy of LAE and MBE against salivary bacteria is by determining the minimum bactericidal concentration (MBC). One suitable method for determining MBC is described in U.S. Pat. No. 7,470,442. Briefly, the MBC is determined using the 96-well microtiter plate serial dilutions as described above for the MIC test. Serial dilutions of cultures in wells showing no visible growth are performed and 10 microliters of culture are plated in triplicate on blood agar plates. Viable colonies are scored after incubation of the plates for 48 hours at 37° C. For each test bacterium, the number of CFU/ml is determined in the initial inoculum. The MBC is defined as the lowest concentration of a test compound that killed at least 99.9% of the cells present in the initial inoculum. […] The MBC of MBE and LAE against the four oral bacteria described supra was determined using the MBC protocol set forth below. The effectiveness of MBE on total salivary bacteria was evaluated using whole saliva. The MBC was determined by serial dilutions as described above for the MIC test. […] Viable colonies were scored after incubation of the plates for 48 hours at 37° C. For each test bacterium, the number of CFU/ml was determined in the initial inoculum. […]

[2] = system: F. nucleatum (ATCC No. 10953); test: MIC against F. nucleatum; assay type: cell-based; conditions: Fusobacterium nucleatum, ATCC10953; 48 hours, 37° C., turbidity <0.05 absorbance at 660 nm
Description: (§2) One method of evaluating the efficacy of LAE and MBE against salivary bacteria is by determining the minimum inhibitory concentration (MIC). One suitable method for determining MIC is described in U.S. Pat. No. 7,470,442, which is herein incorporated by reference. Briefly, chlorhexidine is used as a positive control and sterile water is used as a negative control. Methanol and Tween 80 are used as a solvent for MBE. Tween 80 is the common name for Polysorbate 80. Ninety-six-well microtiter plates are used for this study. Each well contained 5×10^5 CFU/ml of bacteria, serially diluted agents and bacterial growth medium. All bacterial cultures are incubated at 37° C. and stationary. Bacterial growth is estimated spectrophotometrically at 660 nm, after 48 hours.
(§3) S. mutans (ATCC No. 25715), S. sobrinus (ATCC 33478), S. salivarius (ATCC 13419) and F. nucleatum (ATCC No. 10953) were purchased from American Type Culture Center (ATCC, MD). S. mutans, S. sobrinus, and S. salivarius were incubated for 24 hours in Schaedler broth containing 1 ppm vitamin K and 10 ppm hemin. F. nucleatum was incubated anaerobically for 48 hrs. […]
(§4) The MIC of LAE and MBE against the four oral bacteria described supra was determined. The effectiveness of MBE and LAE on total salivary bacteria was evaluated using whole saliva. […]

[3] = system: S. salivarius (ATCC 13419); test: MIC against S. salivarius; assay type: cell-based; conditions: Streptococcus salivarius, ATCC13419; 48 hours, 37° C., turbidity <0.05 absorbance at 660 nm
Description: as §2, §3, §4

S. sobrinus (ATCC 33478) [4] = test: MIC against S. sobrinus; assay type: cell-based; conditions: Streptococcus sobrinus, ATCC33478; 48 hours, 37° C., turbidity <0.05 absorbance at 660 nm
Description: as §2, §3, §4

[5] = system: S. mutans (ATCC No. 25715); test: MIC against S. mutans; assay type: cell-based; conditions: Streptococcus mutans, ATCC25715; 48 hours, 37° C., turbidity <0.05 absorbance at 660 nm
Description: as §2, §3, §4

[6] = system: F. nucleatum (ATCC No. 10953); test: MBC against F. nucleatum; assay type: cell-based; conditions: Fusobacterium nucleatum, ATCC10953; kills at least 99.9% of initial inoculum
Description: as §1

S. sobrinus (ATCC 33478) [7] = test: MBC against S. sobrinus; assay type: cell-based; conditions: Streptococcus sobrinus, ATCC33478; kills at least 99.9% of initial inoculum
Description: as §1

[8] = system: S. salivarius (ATCC 13419); test: MBC against S. salivarius; assay type: cell-based; conditions: Streptococcus salivarius, ATCC13419; kills at least 99.9% of initial inoculum
Description: as §1

[9] = system: total salivary bacteria (whole saliva); test: MIC and FIC Index against total salivary bacteria (whole saliva); assay type: cell-based, human
Description: as §2
For testing total salivary bacteria (whole saliva), 30 ml of saliva was collected from a minimum of 3 healthy human volunteers by chewing a standard gum base. The freshly collected saliva was vortexed briefly and directly added to nutrient broth.
A 1% (w/v) solution of MBE powder (95% magnolol, 5% honokiol, Honsea Sunshine Biotech Co., Ltd., Guangzhou, China) in 100% ethanol was prepared, and used in the current example.
LAE-CF (containing 99% pure LAE) was obtained from Vedeqsa of Barcelona, Spain, and used in the current example.
The MIC of LAE and MBE against the four oral bacteria described supra was determined. The effectiveness of MBE and LAE on total salivary bacteria was evaluated using whole saliva.
Chlorhexidine was used as a positive control and sterile water was used as a negative control. MBE was dissolved in ethanol to produce a working solution containing 1% of MBE. It was added to Shaedler broth that contained 10 ppm of Hemin, 1 ppm of Vitamin K and a minimum of 1×10^6 CFU/ml of bacterial strains. […]
Calculation of the FIC is disclosed in U.S. Pat. No. 7,074,447, which is herein incorporated by reference. Briefly, the FIC Index is calculated according to the following formula: FIC=[QA/Qa+QB/Qb] where […]

## CCCCCCCCCCCC(=O)N[C@@H](CCCNC(=N)N)C(=O)OCC [LAE-CF, L-arginine, N^α-lauroyl ethyl ester]
[1]
  MBC: 12.5 µg/mL (≈ 32.5 µM)
[2]
  MIC: 12.5 µg/mL (≈ 32.5 µM)
[3]
  MIC: 6.3 µg/mL (≈ 16.4 µM)
S. sobrinus (ATCC 33478) [4]
  MIC: 6.3 µg/mL (≈ 16.4 µM)
[5]
  MIC: 6.3 µg/mL (≈ 16.4 µM)
[6]
  MBC: 12.5 µg/mL (≈ 32.5 µM)
S. sobrinus (ATCC 33478) [7]
  MBC: 12.5 µg/mL (≈ 32.5 µM)
[8]
  MBC: 12.5 µg/mL (≈ 32.5 µM)
[9]; 48 hours, 37° C., turbidity <0.05 absorbance at 660 nm
  MIC Whole Saliva: 50 ppm
[9]; Table 3, single agent
  MIC (ppm) on total salivary bacteria, component alone: 50 ppm
[9]; total salivary bacteria, FIC<1 synergistic, 1≤FIC≤2 additive, 2<FIC antagonistic
  FIC: 1
